Entries after “also recorded” stand apart in the source; their conditions may differ. Read-outs that look alike come from different tables or passages of the source.
What was measured:
DOR = DOR (Homo sapiens, UniProt P41143); assay: PDSP competitive binding assay; conditions: 10 µM test article; read-out: Ki: primary assay inhibition of radioligand binding, DOR
H3 = biological target: T1, H3 (Homo sapiens, UniProt Q9Y5N1); assay: PDSP competitive binding assay; conditions: 10 µM test article; read-out: Ki: primary assay inhibition of radioligand binding, H3
T1 construct: purchased NIMH Psychoactive Drug Screening Program (PDSP), University of North Carolina at Chapel Hill

5HT1e = 5HT1e (Homo sapiens, UniProt P28566); assay: PDSP competitive binding assay; conditions: 10 µM test article; read-out: Ki: primary assay inhibition of radioligand binding, 5HT1e
5HT1D = 5HT1D (Homo sapiens, UniProt P28221); assay: PDSP competitive binding assay; conditions: 10 µM test article; read-out: Ki: primary assay inhibition of radioligand binding, 5HT1D
MOR = MOR (Homo sapiens, UniProt P35372); assay: PDSP competitive binding assay; conditions: 10 µM test article; read-out: Ki: primary assay inhibition of radioligand binding, MOR
σ2R/TMEM97 = σ2R/TMEM97 (Homo sapiens, UniProt Q5BJF2); assay: Competition binding with [3H]-ditolylguanidine in presence of (+)-pentazocine (NIMH PDSP)
Alpha1a = biological target: T2, Alpha1a (Homo sapiens, UniProt P35348); assay: PDSP competitive binding assay
T2 sequence (P35348 1-466): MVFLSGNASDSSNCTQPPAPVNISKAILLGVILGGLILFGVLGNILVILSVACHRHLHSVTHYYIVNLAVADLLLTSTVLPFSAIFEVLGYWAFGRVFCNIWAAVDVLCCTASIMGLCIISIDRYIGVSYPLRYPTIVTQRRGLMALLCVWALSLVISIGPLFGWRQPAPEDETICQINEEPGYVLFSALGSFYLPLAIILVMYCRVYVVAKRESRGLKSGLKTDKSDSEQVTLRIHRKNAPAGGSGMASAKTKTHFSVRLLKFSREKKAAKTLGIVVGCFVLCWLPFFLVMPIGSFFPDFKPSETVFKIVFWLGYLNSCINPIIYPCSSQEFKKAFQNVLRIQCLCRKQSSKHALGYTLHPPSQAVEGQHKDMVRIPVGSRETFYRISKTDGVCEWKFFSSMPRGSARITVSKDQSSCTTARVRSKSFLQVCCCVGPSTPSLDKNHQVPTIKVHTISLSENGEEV

Beta 3 = biological target: T3, Beta 3 (Homo sapiens, UniProt P13945); assay: PDSP competitive binding assay; conditions: 10 µM test article; read-out: Ki: primary assay inhibition of radioligand binding, Beta 3
T3 construct: purchased NIMH Psychoactive Drug Screening Program (PDSP), University of North Carolina at Chapel Hill

[1] = tested on: p-eIF2α in human DRG neurons; assay: p-eIF2α immunocytochemistry in cultured human DRG neurons; type: cell-based
KOR = KOR (Homo sapiens, UniProt P41145); assay: PDSP competitive binding assay
[2] = tested on: MGO-induced mechanical hypersensitivity, wild-type mice; assay: Methylglyoxal-induced mechanical hypersensitivity; type: in vivo, mouse; conditions: MGO 20 ng intraplantar; FEM-1689 20 mg/kg IV or ISRIB 2.5 mg/kg IP 24 h after MGO
M2 = M2 (Homo sapiens, UniProt P08172); assay: PDSP competitive binding assay; conditions: 10 µM test article; read-out: Ki: primary assay inhibition of radioligand binding, M2
Beta2 = Beta2 (Homo sapiens, UniProt P07550); assay: PDSP competitive binding assay; conditions: 10 µM test article; read-out: Ki: primary assay inhibition of radioligand binding, Beta2
Alpha2a = biological target: T4, Alpha2a (Homo sapiens, UniProt P08913); assay: PDSP competitive binding assay; conditions: 10 µM test article; read-out: Ki: primary assay inhibition of radioligand binding, Alpha2a
T4 construct: purchased NIMH Psychoactive Drug Screening Program (PDSP), University of North Carolina at Chapel Hill

5HT5a = biological target: T5, 5HT5a (Homo sapiens, UniProt P47898); assay: PDSP competitive binding assay; conditions: 10 µM test article; read-out: Ki: primary assay inhibition of radioligand binding, 5HT5a
T5 construct: purchased NIMH Psychoactive Drug Screening Program (PDSP), University of North Carolina at Chapel Hill

PBR = biological target: T6, PBR (Rattus norvegicus, UniProt P16257); assay: PDSP competitive binding assay; conditions: 10 µM test article; read-out: Ki: primary assay inhibition of radioligand binding, PBR
T6 construct: purchased NIMH Psychoactive Drug Screening Program (PDSP), University of North Carolina at Chapel Hill

[3] = tested on: p-eIF2α in mouse DRG neurons; assay: p-eIF2α immunocytochemistry in cultured DRG neurons; type: cell-based; conditions: for p-eIF2α levels: ISRIB 200 nM
Experimental: The ICC protocol was based on a previously published protocol ([76]). […] Cells were blocked with 10% normal goat serum (NGS) in PBS-triton X (0.1%). […] Antibodies were incubated at 4 °C overnight. […] It was washed with PBS twice. […] Images were analyzed using Olympus CellSens. […] Number of cells analyzed are detailed in SI Appendix, Tables S3 and S4. […]
T his BSA gradient containing the cells was centrifuged at 900g for 5 min at room temperatur e.
The pellet containing the cells was resuspended in Br ainPhys media (STEMCell #05790) containing 2% […]
1% Gluta Max (Gibco # 350 5 0061). Hu man DRG ne uron s were plated a nd grown o n glass coverslips coate d with po ly-D-lysine (Sigma #P7405). C ultured D RG neurons were plated for 24 hours before being treated.
Methylglyoxal (Sigma- Aldrich #M0252) and F EM- 1689 were serially diluted in media.
Mouse samples - DRG cultures […]
anesthesia and decapitated. […]
section above with minor differences.
Mouse DRG neurons were grown in
SAS-0132 and DKR-1677 were […]
dissolved in 100% DMSO to a final concentr ation of 200mM and stored at - 20 °C. and DKR-1677 were serially diluted in media. Untreated media was completely replaced with media containing each compound. […]
Slides were […]
incubated with 1:2 diluted hydrogen peroxide in distilled water for 10 min at r oom temper ature and washed twice in distilled water. The protease IV was applied to each section and incubated for 5 min at room temperature. Slides were w ashed twice in 1X PBS and RNA scope was performed immediately. A mixture of probes - Tmem97, Scn10a, and Fabp7 – was hybridized for 2 hours at 40 °C in a humidity control tray

Compound: OCCCN1CC[C@@H]2C[C@H]1c1cc(-c3ccc(C(F)(F)F)cc3)ccc12 [FEM-1689]
- inhibition at 10 µM (DOR): < 50%
- inhibition at 10 µM (H3): < 50%
- inhibition at 10 µM (5HT1e): < 50%
- inhibition at 10 µM (5HT1D): < 50%
- inhibition at 10 µM (MOR): < 50%
- Ki (σ2R/TMEM97): 11.2 nM
- Ki (σ2R/TMEM97; read-out: σ2R/TMEM97 Ki, averages ± SD): 17 ± 8 nM
- LogKi, Alpha1A (Alpha1a; dose response curve, given as LogKi with negative sign): -5.70
- Ki (Alpha1a; read-out: Alpha1a Ki, single determination): 1990 nM
- Ki (Alpha1a; read-out: Ki, Alpha1A, dose response curve): 1990 nM
- inhibition at 10 µM (Beta 3): < 50%
- p-eIF2α levels ([1]; 10 and 100 nM, 16 h): significantly reduced p-eIF2α levels
- MGO-induced increase in p-eIF2α ([1]; cotreatment MGO 1 µM and FEM-1689 100 nM): prevented this increase; also recorded: prevented an increase in p-eIF2α
- Ki (KOR; Run 1, read-out: Ki, KOR): 4700 nM
- Ki (KOR; Run 2, read-out: Ki, KOR): 9490 nM
- Ki (KOR; read-out: KOR Ki): 7090 ± 2400 nM
- MGO-induced mechanical hypersensitivity [2]: completely reversed MGO-induced mechanical hypersensitivity; also recorded: alleviated mechanical hypersensitivity for the duration of the pain state
- inhibition at 10 µM (M2): < 50%
- inhibition at 10 µM (Beta2): < 50%
- inhibition at 10 µM (Alpha2a): < 50%
- inhibition at 10 µM (5HT5a): < 50%
- inhibition at 10 µM (PBR): < 50%
- treatment time of maximal effect on p-eIF2α ([3]; 100 nM, wild-type mouse DRG neurons): 16 h
- half-life (t1/2) at reducing p-eIF2α levels in vitro ([3]; 100 nM, wild-type mouse DRG neurons, 0.5-16 h): 5.0 h
- IC50 ([3]; DRG neuron, wild-type mouse DRG neurons, 16 h): 30 nM
- p-eIF2α levels ([3]; TMEM97KO mouse DRG neurons, 16 h): did not respond
- p-eIF2α levels ([3]; wild-type mouse DRG neurons, 16 h): reduced p-eIF2α levels
- concentration of maximal ISR inhibition (p-eIF2α) ([3]; wild-type mouse DRG neurons, 16 h, comparable to ISRIB 200 nM): 100 nM

Source: PMC10756276, “Highly specific σ2R/TMEM97 ligand FEM-1689 alleviates neuropathic pain and inhibits the integrated stress response” (Proceedings of the National Academy of Sciences of the …, 2023)
